We go through 3 molecules from publication PMC11024357 (Frontiers in Pharmacology, 2024).

Read-outs that look alike come from different tables or passages of the source.

Data set [1] is described as follows: Tacrolimus blood pharmacokinetics without and with omeprazole 20 mg or famotidine 20 mg in kidney transplant patients (CMIA, non-compartmental analysis). The format is in vivo, human. Particulars: for Effect of single 20 mg co-administration on tacrolimus pharmacokinetic parameters: kidney transplant patients, day 2 vs day 1; for the mean C0/D ratio: pre-dose concentration / daily dose; for C0h, Q1: first quartile; for C0h, Q2: median; for C0h, Q3: third quartile; for concentration at 2 h / concentration at 6 h / AUC(0-t) / Cmax / AUC: human, whole blood, oral; for concentration at 2 h: read-out: C2; for concentration at 6 h: read-out: C6; for AUC(0-t): read-out: AUC0-6; for AUC: read-out: AUC2-6. From the text: The study, randomized, non-blinded, comprised 24 stabilized adult patients between 1–12 months after kidney transplantation (NCT05061303), who received a kidney from a deceased donor. Inclusion criteria were time since kidney transplantation (1–12 months after kidney transplantation) and standard immunosuppressive regimen (tacrolimus, mycophenolate mofetil, prednisone/methylprednisolone/deflazacort). In this group, 2 individuals withdrew their informed consent and were excluded from study. Each randomized patient was admitted to the Department of Nephrology, Transplantology and Internal Diseases of Poznan University of Medical Sciences for 2 days (48 h). The study used the simple randomization method. One of the authors of the study (no the principal researcher) generated a randomized sequence for assigning patients to groups. The random component (computer-generated random numbers) was used in the sequence generation process. Figure 1 presented CONSORT flow chart. No participant changed the group during the study. Standard laboratory tests (creatinine, estimated glomerular filtration rate (eGFR), complete blood count, proteinuria, erythrocyturia) were performed during the first 2 days of participation in the study. In addition, the glomerular filtration rate (GFR) was calculated for each patient using The Chronic Kidney Disease Epidemiology Collaboration (CKD-EPI) creatinine equation to estimate GFR. […] Patients received tacrolimus once daily in the form of tacrolimus monohydrate prolonged-release tablets (Envarsus®, Chiesi Farmaceutici), registration numbers: EU/1/14/935/00, EU/1/14/935/004, EU/1/14/935/006, EU/1/14/935/007 or in the form of tacrolimus monohydrate prolonged-release hard capsules (Advagraf®, Astellas Pharma Europe), registration numbers: EU/1/07/387/001, EU/1/07/387/003, EU/1/07/387/011, EU/1/07/387/007. […] All patients before the start of the study achieved tacrolimus steady state. […] The results were used to obtain the values of pharmacokinetic parameters and statistical evaluation. No study-related adverse events were reported by patients, physicians, medical staff, or others during the study.
In order to establish the tacrolimus metabolism rate in the patients, the blood concentration normalized by the dose (C/D ratio) was calculated. The C0/D ratio can be calculated by dividing the tacrolimus pre-dose concentration (C0) by the corresponding daily tacrolimus dose (D). […] The fast metabolizers group included patients with a C/D ratio of <1.05 ng/mL*1/mg, whereas if the aforementioned ratio was ≥1.55 ng/mL*1/mg, the participants were described as slow metabolizers ([Tholking et al., 2014]).
Tacrolimus concentrations were determined using CMIA, by means of Alinity i analyser ([Mei et al., 2018]). Samples were stored frozen (−10°C or below) for no longer than 6 months. Each sample was thoroughly mixed prior to determining concentration, and 200 μL of each sample was pipetted into a centrifuge tube. Subsequently, the dispenser was filled with the appropriate volume of […] Tacrolimus Whole Blood Precipitation Reagent, followed by the removal of air bubbles from the dispenser. 200 μL of […] Tacrolimus Whole Blood Precipitation Reagent was added to the contents of the first centrifuge tube. Each individual tube was capped, mixed immediately after adding the reagent and centrifuged for 5–10 s. The tubes were then centrifuged again for 4 min. Each tube was uncapped and the supernatant was decanted (poured off) into a Graft Pre-Treatment Tube. They were then vortexed for 5–10 s and assayed for the concentrations of tacrolimus.
Calibration was performed in duplicate samples by testing Calibrators A, B, C, D, E and F. Control samples were prepared by mixing 150 μL of the patient sample and 150 μL of […] Tacrolimus Calibrator A. One sample for each control level was tested once every 24 h as a quality control test. […]

The conditions of data set [2]: no reference given; cited from earlier work.
On the set-up of data set [3]: method as in Summary of Product Characteristics. Particulars: ref Summary of Product Characteristics; cited from earlier work.
On the set-up of data set [4]: method as in Susal and Dohler, 2019. Particulars: ref Susal and Dohler, 2019, cited from earlier work.
Details of data set [5]: method as in Takahashi et al., 2007. The note with it: ref Takahashi et al., 2007, cited from earlier work.
For data set [6] the following is noted: 2012, cited from earlier work.
Setting [7] is: 0.0376 mg/kg, group II, no FA (day 1).
Setting [8] is: 0.0611 mg/kg, group I, no OM (day 1).
The mark [9] stands for this setting: 20 mg, group II, FA 20 mg (day 2).
The mark [10] stands for this setting: with omeprazole 20 mg (day 2) vs no omeprazole (day 1).

In the case of `NC(N)=Nc1nc(CSCCC(N)=NS(N)(=O)=O)cs1` [famotidine], the “Effect of single 20 mg co-administration on tacrolimus pharmacokinetic parameters” value in data set [1] is “no significant changes”.
With `COc1ccc2[nH]c([S+]([O-])Cc3ncc(C)c(OC)c3C)nc2c1` (stereo not shown) [omeprazole], the “Effect of single 20 mg co-administration on tacrolimus pharmacokinetic parameters” value in data set [1] is “significantly increases blood exposure of tacrolimus”. Further, the “bound to plasma proteins” value in data set [2] is “approximately 95%”. The “elimination half-life in the body” value in data set [3] was “shorter than an hour”.
Turning to `C=CC[C@@H]1/C=C(\C)C[C@H](C)C[C@H](OC)[C@H]2O[C@@](O)(C(=O)C(=O)N3CCCC[C@H]3C(=O)O[C@H](/C(C)=C/[C@@H]3CC[C@@H](O)[C@H](OC)C3)[C@H](C)[C@@H](O)CC1=O)[C@H](C)C[C@@H]2OC` [tacrolimus], the “the mean C0/D ratio” value in data set [1] (Group I (omeprazole group), mean ± SD) amounted to 2.02 ± 1.14 ng/mL*1/mg; in data set [1] (Group II (famotidine group), mean ± SD) it was 2.49 ± 0.76 ng/mL*1/mg. The molecule also yielded a C2 in data set [1] (group I, 2 h, OM 20 mg (day 2)) of 11.90 ± 5.03 ng/mL. Further, the “AUC 0–6 normalized by the dose” value in data set [1] (group I, OM 20 mg (day 2)) is 1308.01 ± 595.19 (ng × h/mL)/(mg/kg); in data set [1] (group II, FA 20 mg (day 2)) it was 1784.71 ± 447.89 (ng × h/mL)/(mg/kg); in data set [1] (group II, no FA (day 1)), 1677.84 ± 358.32 (ng × h/mL)/(mg/kg). Moreover, the “AUC 2–6 normalized by the dose” value in data set [1] (group I, OM 20 mg (day 2)) was 939.13 ± 453.89 (ng × h/mL)/(mg/kg); in data set [1] (group I, no OM (day 1)), 832.98 ± 415.81 (ng × h/mL)/(mg/kg); in data set [1] (group II, FA 20 mg (day 2)), 1268.57 ± 329.31 (ng × h/mL)/(mg/kg); in data set [1] (group II, no FA (day 1)) it was 1196.79 ± 279.50 (ng × h/mL)/(mg/kg). The AUC0-6 in data set [1] (group I, no OM (day 1)) stood at 54.23 ± 10.48 ng·h/mL. Besides, the AUC2-6 in data set [1] (group II, FA 20 mg (day 2)) turned out to be 44.05 ± 11.28 ng·h/mL. For the same molecule, the “C0h, Q1” value was “Q1: 5.60 ng/mL” in data set [1] (group II, FA 20 mg (day 2)) and “Q1: 5.25 ng/mL” in data set [1] (group II, no FA (day 1)). Besides, the “C0h, Q2” value in data set [1] (group II, FA 20 mg (day 2)) is on record as “Q2: 7.30 ng/mL”; in data set [1] (group II, no FA (day 1)), “Q2: 6.50 ng/mL”. Further, the “C0h, Q3” value was “Q3: 7.95 ng/mL” in data set [1] (group II, FA 20 mg (day 2)) and “Q3: 8.80 ng/mL” in data set [1] (group II, no FA (day 1)). For the same molecule, the concentration at 2 h in data set [1] (0.0376 mg/kg, group II, 2 h, no FA (day 1)) was determined as 10.3 ± 4.64 ng/mL; in data set [1] (0.0611 mg/kg, group I, 2 h, no OM (day 1)), 9.4 ± 2.5 ng/mL; in data set [1] (group I, 2 h, OM 20 mg (day 2)) it was 11.9 ± 1.59 ng/mL; in data set [1] (group I, 2 h, no OM (day 1)) it was 9.4 ± 0.79 ng/mL; in data set [1] (group II, 2 h, FA 20 mg (day 2)) it was 11 ± 4.27 ng/mL. The concentration at 6 h turned out to be 10.8 ± 3.16 ng/mL in data set [1] (setting [7]); 9.94 ± 3.03 ng/mL in data set [1] (setting [8]); 10.3 ± 1.99 ng/mL in data set [1] (group I, OM 20 mg (day 2)); 11 ± 3.53 ng/mL in data set [1] (group II, FA 20 mg (day 2)). For the same molecule, the AUC(0-t) worked out at 59.1 ± 16.6 ng·h/mL in data set [1] (setting [7]); 63.1 ± 19.5 ng·h/mL in data set [1] (20 mg, group I, OM 20 mg (day 2)); 62.1 ± 15.9 ng·h/mL in data set [1] (setting [9]). The Cmax (in general, the highest concentration seen after dosing) in data set [1] (0.0611 mg/kg, group I, no OM (day 1), mean ± SD) was 11.2 ± 2.34 ng/mL; in data set [1] (20 mg, group I, OM 20 mg (day 2), mean ± SD), 13.1 ± 4.3 ng/mL; in data set [1] (setting [9]) it was 13.1 ± 4.17 ng/mL; in data set [1] (group II, no FA (day 1)) it was 12.7 ± 4.39 ng/mL. The AUC in data set [1] (setting [8]) was 38.7 ± 7.7 ng·h/mL; in data set [1] (group I, OM 20 mg (day 2)) it was 44.3 ± 11.5 ng·h/mL; in data set [1] (group II, no FA (day 1)), 42 ± 11.5 ng·h/mL. Besides, in data set [1] (setting [10]), the “Increase of tacrolimus AUC0-6” value is listed as 16.30%. In data set [1] (setting [10]), the “Increase of tacrolimus AUC0-6 normalized by the dose” value is 12.88%. Besides, in data set [1] (setting [10]), the “Increase of tacrolimus AUC2-6” value is 14.58%. In addition, the “Increase of tacrolimus AUC2-6 normalized by the dose” value in data set [1] (setting [10]) amounted to 12.74%. The “Increase of tacrolimus C2h” value in data set [1] (setting [10]) is reported as 26.60%. In addition, the “6-year survival of the kidney graft” value in data set [4] (tacrolimus C0 4.0–4.9 ng/mL) was 86.5%; in data set [4] (tacrolimus C0 5.0–6.9 ng/mL in the first 3 years after transplantation) it was “over 88%”; in data set [4] (tacrolimus C0 7.0–8.9 ng/mL in the first 3 years after transplantation), “over 88%”; in data set [4] (tacrolimus C0 <4 ng/mL), 82.6%; in data set [4] (tacrolimus C0 ≥9 ng/mL), 87.5%. The “blood concentrations of tacrolimus” value in data set [5] (after switching omeprazole to oral rabeprazole 10 mg/day (day 21)) is “approximately 10 ng/mL”. For the same molecule, the tacrolimus trough levels entry in data set [5] (on omeprazole, despite dose reductions from 17 to 9 mg/day) is on record as “above 15 ng/mL”; in data set [5] (post-transplant day 19, after start of intravenous omeprazole on day 18) it was 30.0 ng/mL. Further, the “trough concentration of tacrolimus” value in data set [5] (post-transplant day 17, daily oral dose 17 mg, on ranitidine) is given as 12.5 ng/mL. In addition, the “increase in tacrolimus concentrations after omeprazole administration” value in data set [6] (kidney transplant patient, ref Zhao WFM. et al.) is recorded as “more than four-fold increase”. In addition, the “tacrolimus blood trough level (C0)” value in data set [6] (postoperative day 3, 9 mg twice daily, before omeprazole, ref Zhao W. et al.) is reported as 19.6 ng/mL; in data set [6] (postoperative day 4, 9 mg twice daily, before omeprazole, ref Zhao W. et al.), 29.2 ng/mL; in data set [6] (postoperative day 6, dose reduced to 7 mg, omeprazole given on day 5, ref Zhao W. et al.), 92 ng/mL. In addition, the serum creatinine (acute nephrotoxicity) in data set [6] (postoperative day 6, at tacrolimus C0 92 ng/mL with omeprazole, ref Zhao W. et al.) was 160 µM. In data set [2], the “bound to plasma proteins” value is “approximately 99%”.
